# Results reported in patent US5200393A, “Lipid excipient for nasal delivery and topical application” (The Liposome Company, Inc., priority 1991, dated 1993).
# Tests used:
# [1] = Nasal delivery of insulin in MOPE excipient to diabetic rats, serum insulin radioimmunoassay; assay type: in vivo, rat
# Method: The insulin-MOPE solution of Example 4 was instilled into the nasal cavity of rats according to the methods of Example 3. Right Sprague-Dawley male 300 g rats which had been made diabetic according to the methods of Weiner et al., 1985, J. Pharm. Sci., 74:922-925 were used. Blood samples were collected after one hour and serum separated according to standard methods as in Example 3. The serum was analyzed for insulin using the Coat-A-CountInsulin ^125 I radioimmunoassay (Diagnostic Products Corp., Los Angeles, Calif.).
# MOPE (80.0 mg) in chloroform was dried down to a lipid film on a round bottom flask at 37° C. in a water bath. The film was resuspended in 10.0 ml of distilled water which had been pH adjusted to pH 9.0 with about 20-50 uL of 0.1N sodium hydroxide (NaOH). Four mg of porcine insulin powder (Eli Lilly, Indianapolis, Ind.) supplied as 25 U/mg, was admixed with the MOPE solution and vortically mixed, creating a 0.8% MOPE insulin gel. The resulting gel was administered to diabetic rats according to the methods of Example 5. […] The methods of the above Example were repeated, dilutions were made to result in 10 ml of each of 0.4%, 0.2%, and 0.1% MOPE, 4.0 mg of insulin being admixed with these MOPE samples as well, the complete results from serum insulin concentrations of each sample plotted together in FIG. 2. […]
# [2] = Nasal delivery of calcitonin in MOPE excipient to rats, serum calcium; assay type: in vivo, rat; settings: MOPE used as the excipient delivery vehicle; FIG. 1; change in serum calcium after one and three hours
# Method: Eight Wistar Kyoto male rats, weighing 250-300 g were anesthetized with a 20% solution of urethane administered in a divided dose of 1/6 g/kg, administered intraperitoneally (IP).
# The rats were surgically prepared for nasal sample instillation according to the Harai method (Hussain et al., 19800, J. Pharm. Sci., 69(12):1411-1413. A pre-drug blood sample was taken from each rat (1.0 ml drawn from retroorbital site) and allowed to clot, and the serum separated by standard technique.
# The calcitonin-MOPE solution (single 50 uL doses per rate) were administered by inserting a syringe containing the sample into the rats nostril, and injecting. A blood sample was obtained from each rat after one and three hours, and assayed for serum calcium.
# Serum calcium was determined colorimetrically by the Sigma Diagnostics Calcium Kit No. 587 (Sigma, St. Louis, Mo.). The change in serum calcium levels compared to pre-drug controls was plotted as a function of time. (FIG. 1)
compound,measurement,setting,value
"CCCCCCCC/C=C\CCCCCCCC(=O)OC[C@@H](O)COP(=O)(O)OCCN [MOPE, 1-oleoyl lysophosphatidylethanolamine]",lipid concentration at which enhanced drug absorption of insulin occurs,"[1]; excipient at about pH 7.0, cloudy fluid",about 0.8%
same,MOPE concentration that has most efficacy for penetration enhancement of insulin,"[1]; pH 9.0, in distilled water",0.2%
same,enhancement of calcitonin through the nasal mucosa,[2],enhancement
